For orientation: pIC50 means the IC50 on a negative log10 scale, so that one unit is a factor of ten.

pIC50: −log10 of the molar value. Read-outs that look alike come from different tables or passages of the source. Bounds are passed on as bounds.

For test [1], the target named is T1, PTP1B (Homo sapiens, UniProt P18031).
T1 sequence (P18031 1-435): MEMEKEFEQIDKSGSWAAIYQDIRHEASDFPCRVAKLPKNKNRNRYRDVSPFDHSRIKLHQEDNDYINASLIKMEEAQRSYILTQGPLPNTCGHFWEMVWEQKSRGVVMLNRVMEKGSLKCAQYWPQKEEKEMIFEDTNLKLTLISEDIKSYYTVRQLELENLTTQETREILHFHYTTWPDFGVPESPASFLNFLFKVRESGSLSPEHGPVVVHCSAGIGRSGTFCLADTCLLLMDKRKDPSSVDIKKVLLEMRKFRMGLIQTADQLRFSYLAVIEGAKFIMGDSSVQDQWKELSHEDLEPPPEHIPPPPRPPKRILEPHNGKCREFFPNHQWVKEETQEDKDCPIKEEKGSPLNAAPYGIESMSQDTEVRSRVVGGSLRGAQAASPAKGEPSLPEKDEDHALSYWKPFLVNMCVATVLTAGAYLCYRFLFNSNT
The experiment in a line: PTP1B phosphatase inhibition, general phosphatase assay using para-nitrophenylphosphate. The class given is biochemical. The note with it: read-out: IC50 Target PTP1B. An excerpt: (§1) Assays protocols for the other enzymes mentioned herein (MtPTPA, PP1, VHR, PTP1B) are disclosed in Schweizer R A S, Atanasov, G A, Frey B M, and Odermatt A, Mol. Cell. Endocrinol. 2003, 212, 41-49 and Barratte, B., Meijer L., Galaktionov K. & Beach D, Anticancer Res. 1992, 12, 873-880. For determination of the phosphatase activity, a general phosphatase assay using para-nitrophenylphosphate was applied.

Test [2] has as its target T2, Cdc25A (Homo sapiens, UniProt P30304).
T2 sequence (P30304 1-524): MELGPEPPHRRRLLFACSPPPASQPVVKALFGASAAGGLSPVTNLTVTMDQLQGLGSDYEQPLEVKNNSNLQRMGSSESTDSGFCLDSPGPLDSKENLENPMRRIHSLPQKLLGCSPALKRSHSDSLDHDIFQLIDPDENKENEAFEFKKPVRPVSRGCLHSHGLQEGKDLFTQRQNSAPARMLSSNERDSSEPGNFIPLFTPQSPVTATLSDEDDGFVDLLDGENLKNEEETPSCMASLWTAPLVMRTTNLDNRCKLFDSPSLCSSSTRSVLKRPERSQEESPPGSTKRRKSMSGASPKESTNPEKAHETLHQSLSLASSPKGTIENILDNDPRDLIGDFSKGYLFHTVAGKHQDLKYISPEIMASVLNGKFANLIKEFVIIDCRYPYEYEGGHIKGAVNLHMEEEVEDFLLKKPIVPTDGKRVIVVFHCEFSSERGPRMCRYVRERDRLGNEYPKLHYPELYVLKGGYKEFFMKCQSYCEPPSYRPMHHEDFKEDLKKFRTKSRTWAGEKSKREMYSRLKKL
In words: Cdc25A phosphatase inhibition. The test is classed as biochemical. An excerpt:
(§2) Assay protocols for Cdc25A, 11βHSD1, 11βHSD2, and AChE are described in detain in the publication of Koch M A, Wittenberg L O, Basu S, Jeyaraj D A, Gourzoulidou E, Reinecke K, Odermatt A, Waldmann H (Proc. Natl. Acad. Sci. U.S.A. 2004 Nov. 30; 101(48):16721-6) and in Koch M A et al., Proc. Natl. Acad. Sci. U.S.A. 2005 Nov. 29; 102 (48):17272-7.

Test [3] addresses VHR (Homo sapiens, UniProt P51452). The experiment in a line: VHR phosphatase inhibition, general phosphatase assay using para-nitrophenylphosphate. The note with it: read-out: IC50 Target VHR. The test is classed as biochemical.
Description: as §1

Test [4] deals with 11beta-HSD1 (Homo sapiens, UniProt P28845). In words: biochemical. The note with it: read-out: IC50 Target 11beta-HSD1.
11beta-HSD1, sequence (P28845 whole entry): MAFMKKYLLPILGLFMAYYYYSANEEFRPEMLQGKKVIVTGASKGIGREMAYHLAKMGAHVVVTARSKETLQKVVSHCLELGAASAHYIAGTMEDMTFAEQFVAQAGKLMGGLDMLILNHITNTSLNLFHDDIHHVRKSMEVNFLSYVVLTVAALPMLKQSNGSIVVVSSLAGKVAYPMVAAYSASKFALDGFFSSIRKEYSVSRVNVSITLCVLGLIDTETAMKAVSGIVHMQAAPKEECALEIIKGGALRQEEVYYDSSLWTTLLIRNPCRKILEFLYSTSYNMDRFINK
Description: as §2

VHR, sequence (P51452 whole entry, species assumed): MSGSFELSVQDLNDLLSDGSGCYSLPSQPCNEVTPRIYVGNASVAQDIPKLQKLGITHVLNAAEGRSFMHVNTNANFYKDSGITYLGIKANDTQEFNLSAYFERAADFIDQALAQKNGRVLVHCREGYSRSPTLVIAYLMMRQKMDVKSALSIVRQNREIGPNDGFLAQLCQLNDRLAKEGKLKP

`CC1=C2CCC[C@H](O)[C@@]2(C)C/C(=C\c2ccoc2)C1=O` [Compound 8, (3E,4aS,5S)-3-[(Furan-3-yl)methylen]-4,4a,5,6,7,8-hexahydro-5-hydroxy-1,4a-dimethylnaphthalen-2(3H)-one]: the negative-log IC50 (pIC50) is 4.30 to 5.00 in test [1], 4.30 to 5.00 in test [2] (read-out: IC50 Target Cdc25A) and over 5.00 in test [3].

In the case of `CC1=C2CCC[C@H](O)[C@@]2(C)C/C(=C\c2cccnc2)C1=O` [Compound 10, (3E,4aS,5S)-4,4a,5,6,7,8-Hexahydro-5-hydroxy-1,4a-dimethyl-3-[(pyridin-3-yl)methylen]naphthalen-2(3H)-one], the pIC50 in test [4] is over 5.00. Same read-out and setting: then `CSc1ccc(/C=C2\C[C@@]3(C)C(=C(C)C2=O)CCC[C@@H]3O)cc1` [Compound 11, (3E,4aS,5S)-3-[4-(Methylthio)benzyliden]-4,4a,5,6,7,8-hexahydro-5-hydroxy-1,4a-dimethylnaphthalen-2(3H)-one], with over 5.00; and `COc1ccc(/C=C2\C[C@@]3(C)C(=C(C)C2=O)CCC[C@@H]3O)c(O)c1` [Compound 14, (3E,4aS,5S)-3-(2-Hydroxy-4-methoxybenzyliden)-4,4a,5,6,7,8-hexahydro-5-hydroxy-1,4a-dimethylnaphthalen-2(3H)-one], with over 5.00. On to `CCCCCCCCCCC/C=C1\C[C@@]2(C)C(=C(C)C1=O)CCC[C@@H]2O` [Compound 22, (3E,4aS,5S)-3-Dodecyliden-4,4a,5,6,7,8-hexahydro-5-hydroxy-1,4a-dimethylnaphthalen-2(3H)-one], for which, in test [4], the pIC50 was over 5.00.

As to `CCc1ccc(/C=C2\C[C@@]3(C)C(=C(C)C2=O)CCC[C@@H]3O)c(C)c1` [Compound 23, (3E,4aS,5S)-3-(4-Ethyl-2-methylbenzyliden)-4,4a,5,6,7,8-hexahydro-5-hydroxy-1,4a-dimethylnaphthalen-2(3H)-one], the pIC50 in test [4] is over 5.00.

For the molecule `CC1=C2CCC[C@H](O)[C@@]2(C)C/C(=C\c2ccc(C#CC(C)OC(C)(C)C)cc2)C1=O` (stereo partly drawn) [Compound 38, (3E,4aS,5S)-3-[4-(3-tert-Butoxybut-1-inyl)benzyliden]-4,4a,5,6,7,8-hexahydro-5-hydroxy-1,4a-dimethylnaphthalen-2(3H)-one], the pIC50 in test [1] was 4.30 to 5.00; in test [2] (read-out: IC50 Target Cdc25A), over 5.00; in test [3], 4.30 to 5.00.

For the molecule `CCCCC#Cc1ccc(/C=C2\C[C@@]3(C)C(=C(C)C2=O)CCC[C@@H]3O)cc1` [Compound 40, (3E,4aS,5S)-3-[4-(Hex-1-inyl)benzyliden]-4,4a,5,6,7,8-hexahydro-5-hydroxy-1,4a-dimethyl-naphthalen-2(3H)-one], the negative logarithm of the IC50 (pIC50) in test [1], in test [2] (read-out: IC50 Target Cdc25A) and in test [3] was 4.30 to 5.00 throughout. With `CC1=C2CCC[C@H](O)[C@@]2(C)C/C(=C\c2ccc(C#CC(C)(C)O)cc2)C1=O` [Compound 44, (3E,4aS,5S)-3-[4-(3-Hydroxy-3-methylbut-1-inyl)benzyliden]-4,4a,5,6,7,8-hexahydro-5-hydroxy-1,4a-dimethyl-naphthalen-2(3H)-one], the pIC50 in test [1], in test [2] (read-out: IC50 Target Cdc25A) and in test [3] was 4.30 to 5.00 each time. With `CCOC(C#Cc1ccc(/C=C2\C[C@@]3(C)C(=C(C)C2=O)CCC[C@@H]3O)cc1)OCC` [Compound 46, (3E,4aS,5S)-3-[4-(3,3-Diethoxyprop-1-inyl)benzyliden]-4,4a,5,6,7,8-hexahydro-5-hydroxy-1,4a-dimethylnaphthalen-2(3H)-on], the pIC50 in test [1] is 4.30 to 5.00; in test [2] (read-out: IC50 Target Cdc25A), over 5.00; in test [3] it was 4.30 to 5.00. As to `CC1=C2CCC[C@H](O)[C@@]2(C)C/C(=C\c2ccc(C#CCN(C)C)cc2)C1=O` [Compound 51, (3E,4aS,5S)-3-{4-[3-(Dimethylamino)prop-1-inyl]benzyliden}-4,4a,5,6,7,8-hexahydro-5-hydroxy-1,4a-dimethylnaphthalen-2(3H)-one], the negative-log IC50 (pIC50) in test [1] is 4.30 to 5.00; in test [2] (read-out: IC50 Target Cdc25A) it was over 5.00; in test [3] it was 4.30 to 5.00. As for `CC1=C2CCC[C@H](O)[C@@]2(C)C/C(=C\C=C\c2ccco2)C1=O` [Compound 60, (3E,4aS,5S)-3-[(E)-3-(Furan-2-yl)allyliden]-4,4a,5,6,7,8-hexahydro-5-hydroxy-1,4a-dimethylnaphthalen-2(3H)-one], the pIC50 in test [1], in test [2] (read-out: IC50 Target Cdc25A) and in test [3] was 4.30 to 5.00 in each case. Consider `CC1=C2CCC[C@H](O)[C@@]2(C)C/C(=C\c2ccc(Br)cc2)C1=O` [Compound 65, (3E,4aS,5S)-3-(4-Brombenzyliden)-4,4a,5,6,7,8-hexahydro-5-hydroxy-1,4a-dimethylnaphthalen-2(3H)-one], for which the pIC50 in test [4] was 4.30 to 5.00. Same read-out and setting: then `CC1=C2CCC[C@H](O)[C@@]2(C)C/C(=C\c2ccc(C#CC3CCCCC3)cc2)C1=O` [Compound 73, (3E,4aS,5S)-3-[4-(2-Cyclohexyl-ethinyl)benzyliden]-4,4a,5,6,7,8-hexahydro-5-hydroxy-1,4a-dimethylnaphthalen-2(3H)-one], with over 5.00. With `C[C@]12C/C(=C\c3ccc(C#C[Si](C)(C)C)cc3)C(=O)C=C1CCC[C@@H]2O` [Compound 137, (3E,4aS,5S)-3-{4-[2-(Trimethylsilyl)ethinyl]benzyliden}-4,4a,5,6,7,8-hexahydro-5-hydroxy-4a-methylnaphthalen-2(3H)-one], the pIC50 is over 5.00 in test [2] and 4.30 to 5.00 in test [3]. Take `C[C@]12C/C(=C\c3ccc(C#CC4(O)CCCCC4)cc3)C(=O)C=C1CCC[C@@H]2O` [Compound 138, (3E,4aS,5S)-3-{4-[2-(1-Hydroxycyclohexyl)ethinyl]benzyliden}-4,4a,5,6,7,8-hexahydro-5-hydroxy-4a-methylnaphthalen-2(3H)-one]: the negative logarithm of the IC50 (pIC50) in test [2] (read-out: IC50 Target Cdc25A) is over 5.00; in test [3] it was 4.30 to 5.00. Take `COCC#Cc1cccc(/C=C2\C[C@@]3(C)C(CCC[C@@H]3O)C(C)C2NC2CCCCC2)c1` (stereo partly drawn) [Compound 346, (E,1S,8aS)-7-[3-(3-Methoxyprop-1-inyl)benzyliden]-6-(cyclohexylamino)-decahydro-5,8a-dimethylnaphthalen-1-ol]: the pIC50 in test [2] (read-out: IC50 Target Cdc25A) is 4.30 to 5.00. The same measure, in the same setting: with `C=CC[C@]12C(CCC[C@@H]1O)C(C)C(=O)/C(=C/c1cccc(C#CCOC)c1)[C@@H]2C` (stereo partly drawn) [Compound 349, (E,4R,4aR,5S)-3-[3-(3-Methoxyprop-1-inyl)benzyliden]-4a-allyl-octahydro-5-hydroxy-1,4-dimethylnaphthalen-2(1H)-one] the figure was 4.30 to 5.00. Turning to `CC1C=CCC2CCC(=Cc3ccco3)C(=O)C12` (stereo not drawn) [Compound 394, 2-Furan-2-ylmethylene-8-methyl-3,4,4a,5,8,8a-hexahydro-2H-naphthalen-1-one], the pIC50 in test [1] was over 5.00; in test [2] (read-out: IC50 Target Cdc25A), 4.30 to 5.00; in test [3], 4.30 to 5.00. Take `CC1(Cc2cccc(I)c2)C(=O)CC[C@@]2(C)C1CCC[C@@H]2O` (stereo partly drawn) [Compound 398, (4aS,5S)-5-Hydroxy-1-(3-iodo-benzyl)-1,4a-dimethyl-octahydro-naphthalen-2-one]: the pIC50 in test [1], in test [2] (read-out: IC50 Target Cdc25A) and in test [3] was 4.30 to 5.00 each time.

Regarding `CC1=C2CCCC(=O)[C@@]2(C)CC/C1=C1/C=CC(=O)O1` [Compound 401, (2E,4aS)-5-(1,4a-Dimethyl-5-oxo-4,4a,5,6,7,8-hexahydro-3H-naphthalen-2-ylidene)-5H-furan-2-one], the pIC50 in test [2] (read-out: IC50 Target Cdc25A) and in test [3] was 4.30 to 5.00 each time. For `CCCCC1(C)C(=O)CC[C@@]2(C)C1CCC[C@@H]2O` (stereo partly drawn) [Compound 414, (4aS,5S)-1-Butyl-5-hydroxy-1,4a-dimethyl-1-octahydro-naphthalen-2-one], the negative-log IC50 (pIC50) in test [1] and in test [2] (read-out: IC50 Target Cdc25A) was 4.30 to 5.00 in each case.

On to `CC1=C2CCCC3(OCCO3)C2(C)CC/C1=C1/C=CC(=O)O1` (stereo not drawn) [Compound 415, (5E)-5-(5′,8a′-dimethyl-3′,4′,8′,8a′-tetrahydro-2′H-spiro[1,3-dioxolane-2,1′-naphthalen]-6′(7′H)-ylidene)furan-2(5H)-one], for which the negative-log IC50 (pIC50) in test [2] (read-out: IC50 Target Cdc25A) is 4.30 to 5.00.

The values are drawn from US20090062401A1, “DECALINE-DERIVED COMPOUNDS AS […] ACTIVE AGENTS” (UNIVERSITAT DORTMUND, priority 2004, published 2009).
